ChEMBL document CHEMBL1201862, “PubChem BioAssay data set” (2004)
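48-hour exposure; five concentrations; linearly interpolated endpoints. Abbreviation: GI50, concentration required for 50% inhibition of growth.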 Calls of active or inactive are those of the source. Rule as the data show it: active = GI50 up to about 1.1 µM and inactive = higher.

Columns and labels:
Test in all cases: NCI anticancer screen, dose series, 48 h
UO-31 = test system: UO-31
HOP-18 = test system: HOP-18
RPMI-8226 = test system: RPMI-8226
RXF 393 = test system: RXF 393
Malme-3M = test system: Malme-3M
MOLT-4 = test system: MOLT-4
HOP-92 = test system: HOP-92
K562 = test system: K562
DMS-114 = test system: DMS-114
HT-29 = test system: HT-29
CAKI-1 = test system: CAKI-1
UACC-257 = test system: UACC-257
HCT-15 = test system: HCT-15
OVCAR-3 = test system: OVCAR-3
NCI-H226 = test system: NCI-H226
SK-MEL-2 = test system: SK-MEL-2
NCI-H23 = test system: NCI-H23
SW-620 = test system: SW-620
U-251 = test system: U-251
ACHN = test system: ACHN
DLD-1 = test system: DLD-1
TK-10 = test system: TK-10
OVCAR-8 = test system: OVCAR-8
SF-539 = test system: SF-539
M14 = test system: M14
CCRF-CEM = test system: CCRF-CEM
SK-MEL-28 = test system: SK-MEL-28
LXFL 529 = test system: LXFL 529
NCI-H522 = test system: NCI-H522
EKVX = test system: EKVX
COLO 205 = test system: COLO 205
SF-268 = test system: SF-268
A549 = test system: A549
SR = test system: SR
KM-20L2 = test system: KM-20L2
OVCAR-4 = test system: OVCAR-4
KM12 = test system: KM12
XF498 = test system: XF498
NCI-H460 = test system: NCI-H460
UACC-62 = test system: UACC-62
SN12C = test system: SN12C
DMS-273 = test system: DMS-273
SF-295 = test system: SF-295
HL-60 = test system: HL-60
SNB-19 = test system: SNB-19
HCC 2998 = test system: HCC 2998
HCT-116 = test system: HCT-116
SNB-75 = test system: SNB-75
HOP-62 = test system: HOP-62
786-0 = test system: 786-0
SNB-78 = test system: SNB-78
SK-MEL-5 = test system: SK-MEL-5
IGROV-1 = test system: IGROV-1
M19-MEL = test system: M19-MEL
OVCAR-5 = test system: OVCAR-5
SK-OV-3 = test system: SK-OV-3
A498 = test system: A498

O=C1c2ccccc2C(=O)c2[nH]c(Cc3ccccc3F)nc21
GI50 (UO-31): 52.5 µM (inactive) | GI50 (HOP-18): 93.8 µM (inactive) | GI50 (RPMI-8226): 57.4 µM (inactive) | GI50 (RXF 393): 20.2 µM (inactive) | GI50 (Malme-3M): 40.7 µM (inactive) | GI50 (MOLT-4): 89.7 µM (inactive) | GI50 (HOP-92): 68.1 µM (inactive) | GI50 (K562): > 100 µM (inactive) | GI50 (DMS-114): 33.7 µM (inactive) | GI50 (HT-29): 32.1 µM (inactive) | GI50 (CAKI-1): 86.7 µM (inactive) | GI50 (UACC-257): 44.9 µM (inactive) | GI50 (HCT-15): 45.2 µM | GI50 (OVCAR-3): 14.5 µM (inactive) | GI50 (NCI-H226): 48.2 µM (inactive) | GI50 (SK-MEL-2): 60.1 µM (inactive) | GI50 (NCI-H23): 27.7 µM (inactive) | GI50 (SW-620): 37.9 µM (inactive) | GI50 (U-251): 7.96 µM (inactive) | GI50 (ACHN): 53.5 µM (inactive) | GI50 (DLD-1): 16.1 µM (inactive) | GI50 (TK-10): 29.3 µM (inactive) | GI50 (OVCAR-8): 48.3 µM (inactive) | GI50 (SF-539): 31.2 µM (inactive) | GI50 (M14): 84.1 µM (inactive) | GI50 (CCRF-CEM): > 100 µM (inactive) | GI50 (SK-MEL-28): > 100 µM (inactive) | GI50 (LXFL 529): 31.9 µM (inactive) | GI50 (NCI-H522): 21.3 µM (inactive) | GI50 (EKVX): > 100 µM (inactive) | GI50 (COLO 205): 33.7 µM (inactive) | GI50 (SF-268): 40.7 µM (inactive) | GI50 (A549): 52.7 µM (inactive) | GI50 (SR): 68.2 µM (inactive) | GI50 (KM-20L2): 33.9 µM (inactive) | GI50 (OVCAR-4): 28.1 µM (inactive) | GI50 (KM12): 38.9 µM (inactive) | GI50 (XF498): 53.1 µM (inactive) | GI50 (NCI-H460): 33.9 µM (inactive) | GI50 (UACC-62): 46.1 µM (inactive) | GI50 (SN12C): > 100 µM (inactive) | GI50 (DMS-273): 34.6 µM (inactive) | GI50 (SF-295): 59.2 µM (inactive) | GI50 (HL-60): 35.6 µM (inactive) | GI50 (SNB-19): 38.5 µM (inactive) | GI50 (HCC 2998): > 100 µM (inactive) | GI50 (HCT-116): 41.4 µM (inactive) | GI50 (SNB-75): 50.7 µM (inactive) | GI50 (HOP-62): 86.7 µM (inactive) | GI50 (786-0): 38.5 µM (inactive)

CCC1CCc2c(c(=O)oc3c2cc(OC)c2cccc(OC)c23)C1 (stereo not drawn)
GI50 (UO-31): > 100 µM (inactive) | GI50 (HOP-18): > 100 µM (inactive) | GI50 (RPMI-8226): 49.5 µM (inactive) | GI50 (RXF 393): 21.7 µM (inactive) | GI50 (Malme-3M): 56.9 µM (inactive) | GI50 (SNB-78): > 100 µM (inactive) | GI50 (MOLT-4): 23.2 µM (inactive) | GI50 (SK-MEL-5): 34.8 µM (inactive) | GI50 (K562): 40.9 µM (inactive) | GI50 (IGROV-1): > 100 µM (inactive) | GI50 (HT-29): 33.4 µM (inactive) | GI50 (M19-MEL): 55.8 µM (inactive) | GI50 (CAKI-1): > 100 µM (inactive) | GI50 (UACC-257): 67.1 µM (inactive) | GI50 (HCT-15): > 100 µM | GI50 (NCI-H226): > 100 µM (inactive) | GI50 (SK-MEL-2): > 100 µM (inactive) | GI50 (NCI-H23): 57.1 µM (inactive) | GI50 (U-251): 74.3 µM (inactive) | GI50 (ACHN): 87.7 µM (inactive) | GI50 (DLD-1): 48.3 µM (inactive) | GI50 (TK-10): > 100 µM (inactive) | GI50 (OVCAR-8): 50.1 µM (inactive) | GI50 (OVCAR-5): > 100 µM (inactive) | GI50 (SF-539): 58.6 µM (inactive) | GI50 (M14): > 100 µM (inactive) | GI50 (CCRF-CEM): 28.3 µM (inactive) | GI50 (SK-MEL-28): > 100 µM (inactive) | GI50 (SK-OV-3): > 100 µM (inactive) | GI50 (LXFL 529): 44 µM (inactive) | GI50 (NCI-H522): 36.6 µM (inactive) | GI50 (EKVX): > 100 µM (inactive) | GI50 (COLO 205): > 100 µM (inactive) | GI50 (SF-268): 90.2 µM (inactive) | GI50 (A549): 71 µM (inactive) | GI50 (SR): 38.1 µM (inactive) | GI50 (KM-20L2): > 100 µM (inactive) | GI50 (OVCAR-4): 76 µM (inactive) | GI50 (KM12): 47.8 µM (inactive) | GI50 (XF498): 29.5 µM (inactive) | GI50 (NCI-H460): 51.1 µM (inactive) | GI50 (UACC-62): 48.5 µM (inactive) | GI50 (SN12C): > 100 µM (inactive) | GI50 (DMS-273): 42.6 µM (inactive) | GI50 (SF-295): 32.6 µM (inactive) | GI50 (HL-60): 17.5 µM (inactive) | GI50 (SNB-19): > 100 µM (inactive) | GI50 (HCC 2998): 77.1 µM (inactive) | GI50 (HCT-116): 33.4 µM (inactive) | GI50 (SNB-75): 55.8 µM (inactive) | GI50 (HOP-62): 60.5 µM (inactive) | GI50 (A498): > 100 µM (inactive) | GI50 (786-0): > 100 µM (inactive)
